In US11478451B1, “Macrocyclic chlorine substituted indole derivatives” (Bayer Aktiengesellschaft, priority 2017, dated 2022) one finds EC50 and IC50 data, which are given here for 13 molecules.

SMILES strings stand for the structures. Where a name gives a salt, the structure may show the parent alone. Read-outs that look alike come from different tables or passages of the source.

Data set [1] concerns SUDHL5 cells. Description: Induction of caspase-3/7 activity (Caspase-Glo 3/7), SUDHL5. The format is cell-based. The conditions noted are these: EC50, median, SUDHL5, 3 h treatment. As to the method: (§1) Induction of Caspase-3/7 Activity Upon Treatment of Cells with Selected Compounds
(§2) The BH3-domain of MCL-1 sequesters pro-apoptotic proteins, thereby inhibiting apoptosis. In contrast, MCL-1 inhibitors are expected to antagonize this effect leading to an increase in apoptosis, which can be determined by measuring the activity of caspase-3/7.
(§3) The activity of caspase-3/7 was determined in DLBCL (Diffuse large B-cell lymphoma) cell lines (SUDHL5 and SUDHL10) upon treatment with different compounds, using the Caspase-Glo® 3/7 reagent from Promega (G8092).
(§4) Rim wells were excluded. The cells were incubated for 3 h hours in a humidified incubator at 37° C.
(§5) For the evaluation of the results, the background measured with “medium-only” was subtracted from all other values.

Data set [2] has as its system SUDHL5 cells. Description: Antiproliferation assay (CellTiter-Glo, 72 h), SUDHL5. The conditions noted are these: IC50, median, SUDHL5, 72 h, read-out: Antiproli SUDHL5 [M] (median). The format is cell-based. As to the method:
(§6) Assessment of the Anti-Proliferative Effect of Compounds in Different Cell Lines
(§7) The impact of compounds on the proliferation of different cell lines was assessed using the CellTiter-Glo® Luminescent Cell Viability reagent from Promega (G7573).
(§8) In parallel, cells were plated in a reference (day 0) plate for time zero determination.
(§9) Rim wells were excluded. The cells were incubated for 72 h hours in a humidified incubator at 37° C. The day 0 plate was measured by adding 30 μL/well of CTG solution (CellTiter-Glo® Luminescent Cell Viability reagent, Promega G7573) to time zero wells in the reference plate followed by a 10 minutes incubation and luminescence reading at 0.1 ms. using the PHERAstar FS microplate reader (BMG Labtech).
(§10) After 72 h incubation, the treated plates were measured in the same way as the day 0 plate mentioned above.

For data set [3], the system named is SUDHL5 cells. Description: Induction of cytotoxicity (CellTiter-Glo, 5 h), SUDHL5. To be noted: SUDHL5, 5 h.
Protocol: (§11) Therefore, cytotoxicity assays were run in parallel in SUDHL5 and SUDHL10 cells.
(§12) The different cell lines were plated in culture medium (RPMI 1640 [GIBCO #22400-089] supplemented with 10% Fetal Bovine Serum) at a density of 3,300 cells in 30 μL/well in a sterile, solid black, flat bottom, polystyrene, TC-treated 384-well microplate (Corning #3571) using Multidrop Combi Reagent Dispenser. As a control, medium without cells was also added to the plate. Cells were incubated in a humidified incubator at 37° C. overnight. […] Rim wells were excluded. The cells were incubated for 5 h hours in a humidified incubator at 37° C. After this incubation, 30 μL of CellTiter-Glo® Luminescent Cell Viability reagent (Promega, G7573) was added to each well using the Multidrop Combi Reagent Dispenser, followed by 15 min incubation on a shaker at room temperature. Finally, luminescence was read at 0.1 ms, with a gain of 3000 using the PHERAstar FS microplate reader (BMG Labtech).
For a further data set, the system named is AMO-1 cells. Description: Antiproliferation assay (CellTiter-Glo, 72 h), AMO-1. Type of data set: cell-based. The conditions noted are these: IC50, median, AMO-1, 72 h, read-out: Antiproli AMO-1 [M] median. As to the method:
as §6, §7, §8, §9, §10

The test system of data set [4] is SUDHL10 cells. Description: Induction of cytotoxicity (CellTiter-Glo, 5 h), SUDHL10. To be noted: SUDHL10, 5 h.
Protocol: as §11, §12
The test system of data set [5] is SUDHL10 cells. Description: Induction of caspase-3/7 activity (Caspase-Glo 3/7), SUDHL10. Type of data set: cell-based. To be noted: EC50, median, SUDHL10, 3 h treatment. The protocol: as §1, §2, §3, §4, §5
Setting [6] is: Homo sapiens, SU-DHL-5, 5 h, read-out: Cytotox SUDHL5 [M] (median), IC50, median.
The mark [7] stands for this setting: Homo sapiens, SU-DHL10, 5 h, read-out: Cytotox SUDHL10 [M] (median), IC50, median.
Where [8] appears, read: read-out: Cytotox SUDHL10 [M] (median), IC50, median.
[9] abbreviates: read-out: Cytotox SUDHL5 [M] (median), IC50, median.

Consider `CCc1nn(CCN2CCOCC2)c2c1-c1c(Cl)ccc3c(CCCOc4cccc5ccccc45)c(C(=O)O)n(c13)CCCCN(C)C2` (racemic) [Example 45, (rac)-4-chloro-3-ethyl-14-methyl-1-[2-(morpholin-4-yl)ethyl]-7-{3-[(naphthalen-1-yl)oxy]propyl}-10,11,12,13,14,15-hexahydro-1H-pyrazolo[3′,4′:8,9][1,6]diazacycloundecino[10,11,1-hi]indole-8-carboxylic acid], for which, in the data set with SUDHL5 cells [1] (Homo sapiens, SU-DHL-5, 3 h), it took 9.4 µM to reach a half-maximal effect (EC50). The IC50 with SUDHL5 cells [2] (Homo sapiens, SU-DHL-5, 72 h) was found to be 7.2e-06 M; in the data set with SUDHL5 cells [3] (setting [6]), 8.1e-06 M.

On to `Cc1c2c(nn1C)COCC1CCC1Cn1c(C(=O)O)c(CCCOc3cccc4ccccc34)c3ccc(Cl)c-2c31` (single isomer, unassigned; enantiomer 1) [Example 78, 3-chloro-4,5-dimethyl-15-{3-[(naphthalen-1-yl)oxy]propyl}-5,7,9,9a,10,11,11a,12-octahydrocyclobuta[3,4]pyrazolo[4′,3′:9,10][1,6]oxazacycloundecino[8,7,6-hi]indole-14-carboxylic acid (Enantiomer 1)], for which the IC50 in the data set with AMO-1 cells (Homo sapiens, AMO1, 72 h) is 3e-06 M; in the data set with SUDHL10 cells [4] (setting [7]) it was 3.1e-06 M; with SUDHL5 cells [3] (setting [6]), 8.2e-07 M. Besides, the EC50 amounted to 0.67 µM with SUDHL5 cells [1] (Homo sapiens, SU-DHL-5, 3 h) and 3.8 µM in the data set on SUDHL10 cells [5] (listed as 078).

Regarding `CCc1c2c(nn1C)CN(C)CCCCn1c(C(=O)O)c(CCCOc3cccc4cc(F)ccc34)c3ccc(Cl)c-2c31` (single isomer, unassigned; enantiomer 2) [Example 7, 4-chloro-3-ethyl-7-{3-[(6-fluoronaphthalen-1-yl)oxy]propyl}-2,14-dimethyl-10,11,12,13,14,15-hexahydro-2H-pyrazolo[3′,4′:8,9][1,6]diazacycloundecino[10,11,1-hi]indole-8-carboxylic acid (Enantiomer 2)], the IC50 in the data set on AMO-1 cells was 6.6e-06 M; in the data set on SUDHL10 cells [4] (setting [8]), 9.3e-06 M; with SUDHL5 cells [3] (setting [9]) it was 6.1e-06 M. For the same molecule, the EC50 in the data set on SUDHL5 cells [1] (Homo sapiens, SU-DHL-5, 3 h) was 8 µM.

For `CCc1nn(C)c2c1-c1c(Cl)ccc3c(CCCOc4cccc5cc(F)ccc45)c(C(=O)O)n(c13)CCCCN(C)C2` (single isomer, unassigned; enantiomer 1) [Example 40, 4-chloro-3-ethyl-7-{3-[(6-fluoronaphthalen-1-yl)oxy]propyl}-1,14-dimethyl-10,11,12,13,14,15-hexahydro-1H-pyrazolo[3′,4′:8,9][1,6]diazacycloundecino[10,11,1-hi]indole-8-carboxylic acid (Enantiomer 1)], the IC50 turned out to be 3.6e-07 M in the data set on AMO-1 cells (Homo sapiens, AMO1, 72 h) and 2e-07 M with SUDHL5 cells [2] (Homo sapiens, SU-DHL-5, 72 h). In the data set on SUDHL5 cells [1] (Homo sapiens, SU-DHL-5, 3 h), this molecule showed an EC50 of 0.2 µM.

`CCc1c2c(nn1C)COCC1CC1Cn1c(C(=O)O)c(CCCOc3cccc4cc(F)ccc34)c3ccc(Cl)c-2c31` (single isomer, unassigned; (-)) [Example 105, (−)-3-chloro-4-ethyl-14-{3-[(6-fluoronaphthalen-1-yl)oxy]propyl}-5-methyl-5,7,9a,10,10a,11-hexahydro-9H-cyclopropa[3,4]pyrazolo[4′,3′:9,10][1,6]oxazacycloundecino[8,7,6-hi]indole-13-carboxylic acid N-ethylethanamine salt]: the EC50 stood at 0.13 µM in the data set on SUDHL5 cells [1] and 0.12 µM with SUDHL10 cells [5]. Also, in the data set on SUDHL10 cells [4] (setting [8]), the IC50 worked out at 2.2e-07 M.

For `CCc1c2c(nn1C)CN(C)CCCn1c(C(=O)O)c(CCCOc3cccc4cc(F)ccc34)c3ccc(Cl)c-2c31` [Example 114, (−)-2-chloro-11-ethyl-1-{3-[(6-fluoronaphthalen-1-yl)oxy]propyl}-7,10-dimethyl-4,5,6,7,8,10-hexahydropyrazolo[3′,4′:7,8][1,5]diazecino[9,10,1-hi]indole-2-carboxylic acid salt], the IC50 in the data set with AMO-1 cells stood at 4.4e-06 M; in the data set with SUDHL10 cells [4] (setting [8]), 5.9e-06 M; in the data set on SUDHL5 cells [3] (setting [9]), 5.7e-06 M. Moreover, the EC50 was determined as 4.3 µM in the data set on SUDHL5 cells [1] and 6.3 µM in the data set on SUDHL10 cells [5].

Regarding `CCc1c2c(nn1C)COCC(O)CCn1c(C(=O)O)c(CCCOc3cccc4cc(F)ccc34)c3ccc(Cl)c-2c31` (stereo not shown) [Example 101, 4-chloro-3-ethyl-7-{3-[(6-fluoronaphthalen-1-yl)oxy]propyl}-12-hydroxy-2-methyl-2,10,11,12,13,15-hexahydropyrazolo[4′,3′:9,10][1,6]oxazacycloundecino[8,7,6-hi]indole-8-carboxylic acid-N-ethylethanamine salt], the EC50 was determined as 5.9 µM in the data set with SUDHL5 cells [1] and 6.1 µM in the data set with SUDHL10 cells [5]. For the same molecule, the values for the IC50 in the data set with SUDHL10 cells [4] (setting [8]) and with SUDHL5 cells [3] (setting [9]) were 7.7e-06 M and 7.3e-06 M, respectively.

Turning to `CCc1nn(CCN2CCOCC2)c2c1-c1c(Cl)ccc3c(CCCOc4cccc5ccccc45)c(C(=O)O)n(c13)C/C=C\CN(C)C2` (racemic) [Example 42, (rac)-(11Z)-4-chloro-3-ethyl-14-methyl-1-[2-(morpholin-4-yl)ethyl]-7-{3-[(naphthalen-1-yl)oxy]-propyl}-10,13,14,15-tetrahydro-1H-pyrazolo[3′,4′:8,9][1,6]diazacycloundecino[10,11,1-hi]indole-8-carboxylic acid], the EC50 with SUDHL5 cells [1] (Homo sapiens, SU-DHL-5, 3 h) was 2.8 µM; in the data set with SUDHL10 cells [5] (Homo sapiens, SU-DHL10, 3 h), 9.4 µM. In addition, the IC50 with SUDHL5 cells [2] (Homo sapiens, SU-DHL-5, 72 h) amounted to 2.7e-06 M; in the data set on SUDHL5 cells [3] (setting [6]), 4e-06 M.

For `CCc1c2c(nn1C)CCCCCCn1c(C(=O)O)c(CCCOc3cccc4ccccc34)c3ccc(Cl)c-2c31` (single isomer, unassigned; enantiomer 1) [Example 52, (+)-4-chloro-3-ethyl-2-methyl-7-{3-[(naphthalen-1-yl)oxy]propyl}-10,11,12,13,14,15-hexahydro-2H-pyrazolo[4′,3′:4,5]azacycloundecino[3,2,1-hi]indole-8-carboxylic acid-N-ethylethanamine salt—Enantiomer 1], the IC50 in the data set with AMO-1 cells (Homo sapiens, AMO1, 72 h) was found to be 2.2e-06 M; in the data set with SUDHL10 cells [4] (setting [8]), 2e-06 M. Further, the 50% effective concentration (EC50) in the data set on SUDHL5 cells [1] (Homo sapiens, SU-DHL-5, 3 h) came out at 0.8 µM.

Regarding `CCc1c2c(nn1C)COCC1CC1Cn1c(C(=O)O)c(CCCOc3cccc4cc(F)ccc34)c3ccc(Cl)c-2c31` (single isomer, unassigned; (-)) [Example 108, (−)-3-chloro-4-ethyl-14-{3-[(6-fluoronaphthalen-1-yl)oxy]propyl}-5-methyl-5,7,9a,10,10a,11-hexahydro-9H-cyclopropa[3,4]pyrazolo[4′,3′:9,10][1,6]oxazacycloundecino[8,7,6-hi]indole-13-carboxylic acid], the IC50 was found to be 1.3e-06 M in the data set with AMO-1 cells, 1e-05 M in the data set on SUDHL5 cells [2] and 7e-06 M in the data set on SUDHL5 cells [3] (setting [9]). For the same molecule, the results for the EC50 in the data set on SUDHL5 cells [1] and in the data set with SUDHL10 cells [5] were 6.3 µM and 7.8 µM, respectively.

With `CCc1c2c(nn1C)CNCCCCn1c(C(=O)O)c(CCCOc3cccc4cc(F)ccc34)c3ccc(Cl)c-2c31` (racemic) [Example 130, (rac)-4-chloro-3-ethyl-7-{3-[(6-fluoronaphthalen-1-yl)oxy]propyl}-2-methyl-10,11,12,13,14,15-hexahydro-2H-pyrazolo[3′,4′:8,9][1,6]diazacycloundecino[10,11,1-hi]indole-8-carboxylic acid], the IC50 in the data set on AMO-1 cells (Homo sapiens, AMO1, 72 h) was 6.3e-06 M; with SUDHL5 cells [2] (Homo sapiens, SU-DHL-5, 72 h), 7.5e-06 M; in the data set with SUDHL5 cells [3] (setting [6]) it was 7.1e-06 M. The same molecule gave an EC50 with SUDHL5 cells [1] (Homo sapiens, SU-DHL-5, 3 h) of 7.3 µM.

For the molecule `CCc1c2c(nn1C)CCCCCCn1c(C(=O)O)c(CCCOc3cccc4ccccc34)c3ccc(Cl)c-2c31` (racemic) [Example 51, (rac)-4-chloro-3-ethyl-2-methyl-7-{3-[(naphthalen-1-yl)oxy]propyl}-10,11,12,13,14,15-hexa-hydro-2H-pyrazolo[4′,3′:4,5]azacycloundecino[3,2,1-hi]indole-8-carboxylic acid], the IC50 in the data set on SUDHL10 cells [4] (setting [7]) worked out at 8.6e-06 M; in the data set on SUDHL5 cells [2] (Homo sapiens, SU-DHL-5, 72 h), 6.7e-06 M; in the data set with SUDHL5 cells [3] (setting [6]) it was 8.4e-06 M.

Consider `CCc1c2c(nn1C)COCC(O)CCn1c(C(=O)O)c(CCCOc3cccc4cc(F)ccc34)c3ccc(Cl)c-2c31` (stereo not shown) [Example 102, 4-chloro-3-ethyl-7-{3-[(6-fluoronaphthalen-1-yl)oxy]propyl}-12-hydroxy-2-methyl-2,10,11,12,13,15-hexahydropyrazolo[4′,3′:9,10][1,6]oxazacycloundecino[8,7,6-hi]indole-8-carboxylic acid-N-ethylethanamine salt], for which the IC50 in the data set with SUDHL10 cells [4] (setting [8]) worked out at 8.2e-06 M; in the data set with SUDHL5 cells [3] (setting [9]), 8.4e-06 M. In the data set with SUDHL10 cells [5], this molecule returned an EC50 of 7.8 µM.
